Measured values published in patent EP0407137B1, “Benzazine compounds and pharmaceutical uses thereof” (priority 1989, dated 1991).
pIC50: −log10 of the molar value. Counter-ions that a name gives are not always drawn.

What was measured:
[1] = system: 5-HT₃ receptor; assay: Antagonistic effect against von Bezold-Jarish reflex caused by serotonin in anesthetized rats; format: in vivo, Male Wistar rats; details: i.v., 5 minutes before serotonin (20 µg/kg i.v.), dose required to antagonize the reflex bradycardia by 50%
Procedure: 5-HT₃ receptor blocking effects of the compounds of the present invention were evaluated based on the antagonistic effects against van Bezold-Jarish reflex caused by administering serotonin to anesthetized rats as an index according to Forzard's method described in Naunyuschmiedeberg's Arch. Pharmacol., vol.326, pp36, 1984.
Male Wistar rats weighing 350-450 g were anesthetized with an intraperitoneal injection of 1.25g/kg of urethane. The left jugular vein was cannulated for the intravenous injection and the left femoral […] was cannulated for the measurement of blood pressure and heart rate. Serotonin (20 µg/kg) was intravenously injected, and the compounds of the present invention were intravenously injected 5 minutes before the challenge with serotonin. The antagonistic activity of the compounds of the present invention against the caused reflex bradycardia was measured and the effective dose (ED₅₀, µg/kg), the dose required to antagonize the maximum activity by 50%, was determined.

[2] = target: T1, serotonin 1A (5-HT1A) receptor (Rattus norvegicus, UniProt P19327); assay: Serotonin binding test (tritium 8-OH-DPAT, crude synaptosome fraction from hippocampus); design: species or system Wistar rat; details: tritium 8-OH-DPAT 0.2 nM, 37°C for 12 minutes, rat hippocampus synaptosomes; read-out: Serotonin binding test IC₅₀
T1 sequence (P19327 1-422): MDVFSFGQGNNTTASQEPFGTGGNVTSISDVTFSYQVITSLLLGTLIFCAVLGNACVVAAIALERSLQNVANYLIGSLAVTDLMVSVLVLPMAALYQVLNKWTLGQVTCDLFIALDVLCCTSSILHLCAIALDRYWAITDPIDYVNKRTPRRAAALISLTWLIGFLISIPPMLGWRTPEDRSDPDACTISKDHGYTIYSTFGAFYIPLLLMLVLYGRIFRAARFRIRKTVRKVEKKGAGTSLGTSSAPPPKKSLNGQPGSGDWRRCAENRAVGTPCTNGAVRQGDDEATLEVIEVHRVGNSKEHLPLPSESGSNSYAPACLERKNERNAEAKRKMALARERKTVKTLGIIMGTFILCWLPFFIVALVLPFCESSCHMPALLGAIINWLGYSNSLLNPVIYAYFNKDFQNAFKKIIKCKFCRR
Procedure: Specific serotonin 1A (5-HT1A) receptor binding test was conducted in accordance with the manner described in Journal of the Neurochemistry, vol.44, page 1685, 1985.
Crude synaptosome fraction was separated from hippocampus of 9 to 10 weeks-aged Wistar rat and suspended into 50 mM tris-hydrochloric acid buffer solution (pH 7.4) containing 1 mM manganese chloride.
Next, to the resulting synaptosome suspension were added the test compound of the present invention at several concentrations and tritium 8-OH-DPAT at the terminal concentration of 0.2 nM, and the mixture was allowed to react at 37°C for 12 minutes. After completion of the reaction, the reaction mixture was suction filtered through Whatman GF/B glass filter. The glass filter was washed with 50 mM tris-hydrochloric acid buffer solution (pH 7.4), and then the radioactivity of the residue remaining on the glass filter was measured by liquid scintillation counter. Non-specific binding was determined under the presence of 10⁻⁵M serotonin (5-HT). 50% Inhibition concentration (IC₅₀) of test compound was graphically determined.

[3] = target: T2, dopamine D₂ receptor (Rattus norvegicus, UniProt P61169); assay: Dopamine D₂ binding test (tritium Spiperone, crude synaptosome fraction from corpus striatum); design: species or system Wistar rats; details: tritium Spiperone 0.2 nM, 37°C for 20 minutes, rat corpus striatum synaptosomes; read-out: Dopamine D₂ binding test IC₅₀
T2 construct: Crude synaptosome fraction was separated from corpus striatum of 9 to 10 weeks-aged Wistar rats; from tissue; host or cells: rat corpus striatum, crude synaptosome fraction
Procedure: Crude synaptosome fraction was separated from corpus striatum of 9 to 10 weeks-aged Wistar rats and suspended into 50 mM tris-hydrochloric acid buffer solution (pH 7.1) containing 120 mM sodium chloride, 5 mM potassium chloride, 2 mM calcium chloride, 1 mM magnesium chloride, 10 µM pargyline and 0.1% ascorbic acid. Next, to the resulting synaptosome suspension were added the test compound of the present invention at several concentrations and tritium Spiperone at the terminal concentration of 0.2 nM, and the mixture was allowed to react at 37°C for 20 minutes. After completion of the reaction, the reaction mixture was suction filtered through Whatman GF/B glass filter. The glass filter was washed with 50 mM tris-hydrochloric acid buffer solution (pH 7.7), and then the radioactivity of the residue remaining on the glass filter was measured by liquid scintillation counter. Non-specific binding was determined under the presence of […]. 50% Inhibition concentration (IC₅₀) of the test compound was graphically determined.

T2 sequence (P61169 whole entry): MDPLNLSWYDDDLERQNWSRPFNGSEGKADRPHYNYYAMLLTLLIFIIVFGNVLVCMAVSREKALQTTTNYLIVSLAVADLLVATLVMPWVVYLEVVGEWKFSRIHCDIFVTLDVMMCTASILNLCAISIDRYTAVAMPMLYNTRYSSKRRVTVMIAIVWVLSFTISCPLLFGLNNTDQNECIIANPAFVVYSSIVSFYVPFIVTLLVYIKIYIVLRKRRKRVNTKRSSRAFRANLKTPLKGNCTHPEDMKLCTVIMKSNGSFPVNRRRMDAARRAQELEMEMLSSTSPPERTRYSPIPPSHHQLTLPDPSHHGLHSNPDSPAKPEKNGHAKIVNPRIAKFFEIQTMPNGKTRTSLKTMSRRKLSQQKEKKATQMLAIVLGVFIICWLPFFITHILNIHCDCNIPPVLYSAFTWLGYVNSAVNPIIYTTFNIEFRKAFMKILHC

| Compound | ED₅₀ [1] [µg/kg] | pIC50 [2] | pIC50 [3] |
| --- | --- | --- | --- |
| CN1CCOc2c(C(=O)NC3CN4CCC3CC4)cc(Cl)cc21.Cl (centres unmarked) [Example 1, 6-chloro-4-methyl-N-(3-quinuclidinyl)-3,4-dihydro-2H-1,4-benzoxazine-8-carboxamide hydrochloride] | 0.28 |  |  |
| CN1CC(C)(C)Oc2c(C(=O)NC3CN4CCC3CC4)cc(Cl)cc21.Cl (centres unmarked) [Example 3, 6-chloro-2,2,4-trimethyl-N-(3-quinuclidinyl)-3,4-dihydro-2H-1,4-benzoxazine-8-carboxamide hydrochloride] | 0.12 |  |  |
| CN1CC(C)(C)Oc2c(C(=O)N[C@H]3CN4CCC3CC4)cc(Cl)cc21.Cl [Example 4, (R)-6-chloro-2,2,4-trimethyl-N-(3-quinuclidinyl)-3,4-dihydro-2H-1,4-benzoxazine-8-carboxamide hydrochloride] | 0.17 |  |  |
| CN1CC(C)(C)Oc2c(C(=O)N[C@@H]3CN4CCC3CC4)cc(Cl)cc21.Cl [Example 5, (S)-6-chloro-2,2,4-trimethyl-N-(3-quinuclidinyl)-3,4-dihydro-2H-1,4-benzoxazine-8-carboxamide hydrochloride] | 0.11 |  |  |
| CN1CCOc2c(C(=O)N[C@H]3CN4CCC3CC4)cc(Cl)cc21 [Example 7, (R)-6-chloro-4-methyl-N-(3-quinuclidinyl)-3,4-dihydro-2H-1,4-benzoxazine-8-carboxamide] | 0.73 |  |  |
| CCN1CCCC1CNC(=O)c1cc(Cl)cc2c1OCCN2C (centres unmarked) [Example 13, 6-chloro-4-methyl-N-[(1-ethyl-2-pyrrolidinyl)methyl]-3,4-dihydro-2H-1,4-benzoxazine-8-carboxamide hydrochloride] |  | 6.12 |  |
| CCCCN1CCCC1CNC(=O)c1cc(Cl)cc2c1OCCN2C (centres unmarked) [Example 14, 6-chloro-4-methyl-N-[(1-butyl-2-pyrrolidinyl)-methyl]-3,4-dihydro-2H-1,4-benzoxazine-8-carboxamide hydrochloride] |  | 7.21 |  |
| CCCCCCCCCN1CCC[C@@H]1CNC(=O)c1cc(Cl)cc2c1OCCN2C [Example 38, (R)-(+)-6-chloro-4-methyl-N-[(1-nonyl-2-pyrrolidinyl)methyl]-3,4-dihydro-2H-1,4-benzoxazine-8-carboxamide] |  | 7.62 | 6.16 |
| CCCCN1CCC[C@@H]1CNC(=O)c1cc(Cl)cc2c1OCCN2C [Example 39, (R)-(+)-N-[(1-butyl-2-pyrrolidinyl)methyl]-6-chloro-4-methyl-3,4-dihydro-2H-1,4-benzoxazine-8-carboxamide] |  | 6.38 | 6.20 |
